Assays:
LTC4 = LTC4 antagonism in isolated guinea-pig trachea (method (i)); format: cell-based; settings: Cavia porcellus, 5 min; 10^-5 g/ml test compound, 5 min prior to LTC4 (2×10^-8 g/ml)
Method: (§1) (i) LTC4 and LTD4 antagonisms in guinea-pig trachea
(§2) Antagonisms for LTC4 and LTD4 were determined in isolated guinea-pig trachea prepared as spiral strip. Tracheal preparations were suspended under 1 g tension in 10 ml organ baths and they were incubated for 1 hr prior to use. Contractile responses to LTC4 (2×10^-8 g/ml) and LTD4 (2×10^-8 g/ml) were obtained after the maximal response to histamine (10^-4 M). Test compounds dissolved in 100% dimethyl sulfoxide were added to the organ baths (final concentration of 10^-5 g/ml or 10^-6 g/ml) 5 min prior to LTC4 and LTD4 addition, and then contractile responses to LTC4 and LTD4 were compared with those of control which was obtained from a paired trachea in the absence of test compounds. LTC4 - and LTD4 -induced contractions were expressed as a percentage of the maximal response to histamine. The antagonism was determined as follows:
(§3) Antagonism (%)=(1.0-% contraction in test/% contraction in control)×100

ddY strain male mice [1] = assay: Acute toxicity test, intraperitoneal (Test method-(1)); format: in vivo; settings: 7 days
Method: The lethal ratio was determined in ddY strain male mice (4 weeks old) at 7 days after the intraperitoneal injection of test compounds.

[2] = system: antigen-induced anaphylactic bronchoconstriction in passively sensitized guinea-pig; assay: Anaphylactic bronchoconstriction in passively sensitized guinea-pig, i.v. test; format: in vivo; settings: i.v. 2 mg/kg, 1 min prior to EA challenge (10 mg/kg)
Method: (§4) (iii) Effect on anaphylactic bronchoconstriction in passively sensitized guinea-pig
Male guinea-pigs (350-450 g) were passively sensitized with intravenous (i.v.) injection of 0.125 ml rabbit anti-EA (egg albumin) serum (Cappel Laboratories) 1 to 2 days preceding the experiment. […] Sensitized guinea-pigs were anaesthetized with intraperitoneal injection of urethane (1.5 g/kg). The right jugular vein was cannulated for the administration of the all agents and trachea was cannulated to record total pulmonary resistance. Guinea-pigs were artificially ventilated by a small animal respirator (Shinano, Model SN-480-7) set at a stroke volume of 4.5 ml and a rate of 50 breaths per min. […] The increase in air overflow volume was expresssed as a percentage of the maximum bronchoconstriction obtained by clamping off the trachea. Following surgical preparation, the animals were pretreated with indomethacin (0.2 mg/kg, 10 min), pyrilamine (2 mg/kg, 6 min) and propanolol (0.1 mg/kg, 5 min) prior to the EA challenge (0.1 or 10 mg/kg). All test compounds were administered intraveneously or orally before the EA challenge. Inhibition (%) of bronchoconstriction was determined as follows: Inhibition (%)=(1.0%-maximum bronchoconstriction in test/% maximum bronchoconstriction in control)×100. […] The number of test animals was 4 in the i.v. test and 6 in the p.o. test.
(a) The i.v. test: A test compound (2 mg/kg) was suspended or dissolved in 3% Tween 80 and intraveneously administered 1 min prior to the EA challlenge (10 mg/kg).

LTD4 [3] = assay: LTD4 antagonism in isolated guinea-pig trachea (method (i)); format: cell-based; settings: Cavia porcellus, 5 min; for inhibition at 10 µg/mL: 10^-5 g/ml test compound, 5 min prior to LTD4 (2×10^-8 g/ml); for inhibition at 1 µg/mL: 10^-6 g/ml test compound, Test method (i) (asterisk in Table 4), 5 min prior to LTD4
Method: as §1, §2, §3

[4] = system: antigen-induced anaphylactic bronchoconstriction in passively sensitized guinea-pig; assay: Anaphylactic bronchoconstriction in passively sensitized guinea-pig, p.o. test; format: in vivo; settings: for Inhibition (%) of bronchoconstriction: 2 hours prior to EA challenge (0.2 mg/kg)
Method: as §4
Male guinea-pigs (350-450 g) were passively sensitized with intravenous (i.v.) injection of 0.125 ml rabbit anti-EA (egg albumin) serum (Cappel Laboratories) 1 to 2 days preceding the experiment. Antigen-induced anaphylactic bronchoconstrictions were measured by modified method of Konzett and Rossler (Arch. Exp. Path. Pharmak., 195, 71, 1940). Sensitized guinea-pigs were anaesthetized with intraperitoneal injection of urethane (1.5 g/kg). The right jugular vein was cannulated for the administration of the all agents and trachea was cannulated to record total pulmonary resistance. Guinea-pigs were artificially ventilated by a small animal respirator (Shinano, Model SN-480-7) set at a stroke volume of 4.5 ml and a rate of 50 breaths per min. The change in pulmonary resistance was measured with a pressure transducer (Nihon Kohden, Model TP-602T) connected to a T-tube on the tracheal cannula. The increase in air overflow volume was expresssed as a percentage of the maximum bronchoconstriction obtained by clamping off the trachea. Following surgical preparation, the animals were pretreated with indomethacin (0.2 mg/kg, 10 min), pyrilamine (2 mg/kg, 6 min) and propanolol (0.1 mg/kg, 5 min) prior to the EA challenge (0.1 or 10 mg/kg). All test compounds were administered intraveneously or orally before the EA challenge. Inhibition (%) of bronchoconstriction was determined as follows: Inhibition (%)=(1.0%-maximum bronchoconstriction in test/% maximum bronchoconstriction in control)×100. The maximum bronchoconstriction was btained within 30 min after the EA challenge. The number of test animals was 4 in the i.v. test and 6 in the p.o. test.
(b) The p.o. test: A test compound was suspended in 5% gum arabic and orally administered 2 hours prior to the EA challenge (0.2 mg/kg). The reaction of the control was 62±6%.

ddY strain male mice [5] = assay: Acute toxicity test, oral (Test method-(2)); format: in vivo; settings: 7 days
Method: The lethal ratio was determined in ddY strain male mice (4 weeks old) at […] 7 days after the oral administration of test compounds.

LTD4 [6] = assay: LTD4 antagonism in isolated guinea-pig trachea with indomethacin (method (ii)); format: cell-based; settings: Cavia porcellus, 0.5 h, 10^-6 g/ml test compound, 30 min prior to LTD4
Method: (ii) LTD4 antagonism in guinea-pig trachea
Antagonism for LTD4 was determined in isolated guinea-pig trachea prepared as spiral strip. Tracheal preparations were suspended under 1 g tension in 10 ml organ baths containing […] of indomethacin and they were incubated for 1 hr prior to use. Contractile responses to LTD4 (2×10^-8 g/ml) were obtained after the maximal respone to hitamine (10^-4 M). Test compounds dissolved in 100% dimethyl sulfoxide were added to the organ baths (final concentration of 10^-6 g/ml) 30 min prior to LTD4 addition, and then contractile responses to LTD4 were compared with those of control which was obtained from a paired trachea in the absence of test compounds. LTD4 -induced contractions were expressed as a percentage of the maximal response to histamine. The antagonism was determined as follows:
as §3

Row | SMILES | inhibition at 10 µg/mL (LTC4) [%] | Lethal ratio (Death number/Experimental number) (ddY strain male mice [1]; i.p. 200 mg/kg) | Lethal ratio (Death number/Experimental number) (ddY strain male mice [1]; i.p. 400 mg/kg) | Inhibition (%) of bronchoconstriction [2] [%] | inhibition at 10 µg/mL (LTD4 [3]) [%] | inhibition at 1 µg/mL (LTD4 [3]) [%] | other results
1 | COc1cccc(CNc2cnn(C3CCCC3)c(=O)c2Cl)c1 [Compound No. 3, 4-Chloro-5-(3-methoxybenzylamino)-2-cyclopentyl-3(2H)pyridazinone] | 97 | 0/2 | 0/1 | 31 | 82 | – | –
2 | COc1ccc(CNc2cnn(CC(=O)O)c(=O)c2Cl)cc1OC [Compound No. 10, 4-Chloro-5-(3,4-dimethoxybenzylamino)-2-(carboxymethyl)-3(2H)pyridazinone] | 29 | – | – | – | 20 | – | –
3 | CCOc1cc(CNc2cnn(C)c(=O)c2Cl)ccc1OC [Compound No. 13] | 81 | 0/2 | 0/1 | 19 | 79 | – | –
4 | CCCCOc1cc(CNc2cn[nH]c(=O)c2Br)ccc1OC [Compound No. 38] | – | – | – | – | – | 80 | Inhibition (%) of bronchoconstriction ([4]; p.o. 30 mg/kg): 53%; Lethal ratio (Death number/Experimental number) (ddY strain male mice [5]; oral 400 mg/kg): 0/3; Lethal ratio (Death number/Experimental number) (ddY strain male mice [5]; oral 800 mg/kg): 0/3
5 | CCCc1c(OCC(O)COc2ccc3c(=O)cc(C(=O)O)oc3c2CCC)ccc(C(C)=O)c1O (stereo not drawn) [FPL-55712, reference compound] | 100 | – | – | 27 | 97 | 76 | inhibition at 1 µg/mL (LTD4 [6]): 94%; Inhibition of bronchoconstriction (in words) ([4]; p.o. 100 mg/kg): No substantial inhibition
6 | CCOc1cc(CNc2cn[nH]c(=O)c2Br)ccc1OC [compound 36] | – | – | – | – | – | 70 | Inhibition (%) of bronchoconstriction ([4]; p.o. 50 mg/kg): 68%
